Assay results published in ChEMBL document CHEMBL1201862, “PubChem BioAssay data set” (2004).
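Step 1: Grow cells in 96-well plates. Step 2: Expose to compound for 48 hours at 5 concentrations. Step 3: Interpolate endpoints linearly; if unreached, use highest concentration. GI50 = concentration required for 50% inhibition of growth.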 Calls of active or inactive are those of the source. Cut-off read from the data, not from the text of the source: active = GI50 up to about 1.1 µM and inactive = higher.

Experiments:
Experiment in all cases: NCI tumour cell line growth inhibition, 48 h
NCI-H460 = test system: NCI-H460
EKVX = test system: EKVX
HCT-15 = test system: HCT-15
A549 = test system: A549
COLO 205 = test system: COLO 205
SK-MEL-2 = test system: SK-MEL-2
SK-MEL-28 = test system: SK-MEL-28
OVCAR-4 = test system: OVCAR-4
CCRF-CEM = test system: CCRF-CEM
SN12C = test system: SN12C
SF-295 = test system: SF-295
HL-60 = test system: HL-60
SNB-75 = test system: SNB-75
HOP-62 = test system: HOP-62
SK-OV-3 = test system: SK-OV-3
K562 = test system: K562
DU-145 = test system: DU-145
SF-268 = test system: SF-268
MDA-MB-435 = test system: MDA-MB-435
M14 = test system: M14

In the case of `CN1C(=O)N/C(=C\c2ccc(S(=O)(=O)N/N=C/c3ccccc3)cc2)C1=O`, the GI50 (NCI-H460) is reported as 10.5 µM (inactive), the GI50 (EKVX) is reported as 53.1 µM (inactive) and the GI50 (HCT-15) is reported as 10.4 µM. For the same compound, the GI50 (A549) was 28.5 µM (inactive), the GI50 (COLO 205) was 71.9 µM (inactive) and the GI50 (SK-MEL-2) was 15 µM (inactive). The GI50 (SK-MEL-28) was 38 µM (inactive), the GI50 (OVCAR-4) was 18.9 µM (inactive) and the GI50 (CCRF-CEM) was 13.3 µM (inactive). The GI50 (SN12C) was 66.2 µM (inactive), the GI50 (SF-295) was 21.9 µM (inactive) and the GI50 (HL-60) was 4.93 µM (inactive). The GI50 (SNB-75) was 48.3 µM (inactive), the GI50 (HOP-62) was 64.9 µM (inactive) and the GI50 (SK-OV-3) was > 100 µM (inactive). For the same compound, the GI50 (K562) was 30 µM (inactive), the GI50 (DU-145) was 40 µM (inactive) and the GI50 (SF-268) was 26.8 µM (inactive). For the same compound, the GI50 (MDA-MB-435) was 37 µM (inactive) and the GI50 (M14) was 37 µM (inactive).

With `O=C1NC2(CCN(CCc3ccccc3)CC2)Oc2ccccc21` the GI50 (NCI-H460) was > 100 µM (inactive), the GI50 (EKVX) was 69.2 µM (inactive) and the GI50 (HCT-15) was 46.3 µM. For the same compound, the GI50 (A549) was 64.6 µM (inactive), the GI50 (COLO 205) was 31.5 µM (inactive) and the GI50 (SK-MEL-2) was > 100 µM (inactive). For the same compound, the GI50 (SK-MEL-28) was 73.6 µM (inactive), the GI50 (OVCAR-4) was > 100 µM (inactive) and the GI50 (CCRF-CEM) was 49.3 µM (inactive). For the same compound, the GI50 (SN12C) was 99.5 µM (inactive), the GI50 (SF-295) was 49.2 µM (inactive) and the GI50 (HL-60) was 40.4 µM (inactive). For the same compound, the GI50 (SNB-75) was 36.9 µM (inactive), the GI50 (HOP-62) was > 100 µM (inactive) and the GI50 (SK-OV-3) was > 100 µM (inactive). The GI50 (K562) was 32.5 µM (inactive), the GI50 (DU-145) was > 100 µM (inactive) and the GI50 (SF-268) was > 100 µM (inactive). For the same compound, the GI50 (MDA-MB-435) was 53.5 µM (inactive) and the GI50 (M14) was 18.5 µM (inactive).

With `CN1c2ccc(Cl)cc2C(=O)NC1c1ccc([N+](=O)[O-])s1` (stereo not given) the GI50 (NCI-H460) was 16.1 µM (inactive), the GI50 (EKVX) was 21.5 µM (inactive) and the GI50 (HCT-15) was 12.7 µM. For the same compound, the GI50 (A549) was 23.5 µM (inactive), the GI50 (COLO 205) was 21.5 µM (inactive) and the GI50 (SK-MEL-2) was 16.4 µM (inactive). The GI50 (SK-MEL-28) was 18.7 µM (inactive), the GI50 (OVCAR-4) was 20.4 µM (inactive) and the GI50 (CCRF-CEM) was 39.5 µM (inactive). For the same compound, the GI50 (SN12C) was 16.6 µM (inactive), the GI50 (SF-295) was 21.6 µM (inactive) and the GI50 (HL-60) was 19.6 µM (inactive). For the same compound, the GI50 (SNB-75) was 12 µM (inactive), the GI50 (HOP-62) was 18.5 µM (inactive) and the GI50 (SK-OV-3) was 20.2 µM (inactive). The GI50 (K562) was 13.3 µM (inactive), the GI50 (DU-145) was 19.3 µM (inactive) and the GI50 (SF-268) was 3.75 µM (inactive). The GI50 (MDA-MB-435) was 16.3 µM (inactive) and the GI50 (M14) was 15.6 µM (inactive).

`Cc1cc2c(cc1Cl)SC(c1ccccc1O)NS2(=O)=O` (stereo not given) was tested, and the GI50 (NCI-H460) was 92 µM (inactive), the GI50 (EKVX) was 56.9 µM (inactive) and the GI50 (HCT-15) was 19.4 µM. The GI50 (A549) was > 100 µM (inactive), the GI50 (COLO 205) was 20.8 µM (inactive) and the GI50 (SK-MEL-2) was 87.3 µM (inactive). For the same compound, the GI50 (SK-MEL-28) was 49.4 µM (inactive), the GI50 (OVCAR-4) was 63.7 µM (inactive) and the GI50 (CCRF-CEM) was < 0.01 µM (active). The GI50 (SN12C) was 41 µM (inactive), the GI50 (SF-295) was > 100 µM (inactive) and the GI50 (HL-60) was 59.7 µM (inactive). The GI50 (SNB-75) was > 100 µM (inactive), the GI50 (HOP-62) was > 100 µM (inactive) and the GI50 (SK-OV-3) was > 100 µM (inactive). The GI50 (K562) was 27.7 µM (inactive), the GI50 (DU-145) was 33.9 µM (inactive) and the GI50 (SF-268) was 91.4 µM (inactive). The GI50 (MDA-MB-435) was 45.7 µM (inactive) and the GI50 (M14) was 57 µM (inactive).

For `O=C(O)c1ccccc1NC(c1ccccc1)c1ccc2cccnc2c1O` (stereo not given), the GI50 (NCI-H460) was 4.03 µM (inactive), the GI50 (EKVX) was 6.18 µM (inactive) and the GI50 (HCT-15) was 4.42 µM. For the same compound, the GI50 (A549) was 5.56 µM (inactive), the GI50 (COLO 205) was 15.7 µM (inactive) and the GI50 (SK-MEL-2) was 25.2 µM (inactive). For the same compound, the GI50 (SK-MEL-28) was 6.41 µM (inactive), the GI50 (OVCAR-4) was 5.78 µM (inactive) and the GI50 (CCRF-CEM) was 1.93 µM (inactive). For the same compound, the GI50 (SN12C) was 6.58 µM (inactive), the GI50 (SF-295) was 4.37 µM (inactive) and the GI50 (HL-60) was 1.2 µM (inactive). The GI50 (SNB-75) was 29.3 µM (inactive), the GI50 (HOP-62) was 7.67 µM (inactive) and the GI50 (SK-OV-3) was 16.8 µM (inactive). The GI50 (K562) was 8.87 µM (inactive), the GI50 (DU-145) was 18.7 µM (inactive) and the GI50 (SF-268) was 5.19 µM (inactive). For the same compound, the GI50 (MDA-MB-435) was 14.8 µM (inactive) and the GI50 (M14) was 5.81 µM (inactive).

`N#CC(C#N)=C(N)/C(C#N)=C/c1ccc2[nH]ccc2c1` was tested, and the GI50 (NCI-H460) was > 100 µM (inactive), the GI50 (EKVX) was > 100 µM (inactive) and the GI50 (HCT-15) was greater than 100 µM. The GI50 (A549) was > 100 µM (inactive), the GI50 (COLO 205) was > 100 µM (inactive) and the GI50 (SK-MEL-2) was > 100 µM (inactive). The GI50 (SK-MEL-28) was > 100 µM (inactive), the GI50 (OVCAR-4) was > 100 µM (inactive) and the GI50 (CCRF-CEM) was > 100 µM (inactive). For the same compound, the GI50 (SN12C) was > 100 µM (inactive), the GI50 (SF-295) was > 100 µM (inactive) and the GI50 (HL-60) was > 100 µM (inactive). For the same compound, the GI50 (SNB-75) was 22.7 µM (inactive), the GI50 (HOP-62) was > 84.3 µM (inactive) and the GI50 (SK-OV-3) was > 100 µM (inactive). The GI50 (K562) was > 100 µM (inactive), the GI50 (DU-145) was > 100 µM (inactive) and the GI50 (SF-268) was > 100 µM (inactive). The GI50 (MDA-MB-435) was > 100 µM (inactive) and the GI50 (M14) was > 100 µM (inactive).
